Reference: US20100092526A1, “NANOEMULSION THERAPEUTIC COMPOSITIONS AND METHODS OF USING THE SAME” (NanoBio Corporation, priority 2008, published 2010)
Values after ≈ are worked out from the molar mass of the structure shown. Read-outs that look alike come from different tables or passages of the source.

Experiments:
[1] = test system: Proteus mirabilis; experiment: MIC/MBC of nanoemulsions against gram-negative isolates (CLSI, alamar blue); format: cell-based; details: Proteus mirabilis (n = 5); for MIC50 / MIC Range: nanoemulsions in the presence of 5 mM EDTA
[2] = test system: Klebsiella pneumoniae; experiment: as above; format: cell-based; details: Klebsiella pneumoniae (n = 5); for MIC50 / MIC Range: nanoemulsions in the presence of 5 mM EDTA
[3] = test system: Acinetobacter baumannii; experiment: as above; format: cell-based; details: Acinetobacter baumannii (n = 5); for MIC50: nanoemulsions in the presence of 5 mM EDTA
[4] = test system: Burkholderia cepacia; experiment: as above; format: cell-based; details: Burkholderia cepacia (n = 5), nanoemulsions in the presence of 5 mM EDTA; for MIC Range: in µg/mL
[5] = test system: P. aeruginosa, B. cenocepacia, A. baumannii and S. maltophilia; experiment: MIC/MBC against all strains of Example 8; details: read-out: MBC90, against all strains
[6] = test system: Acinetobacter baumannii; experiment: MIC/MBC against clinical isolates (CLSI, alamar blue); details: Acinetobacter baumannii
[7] = test system: Pseudomonas aeruginosa; experiment: MIC/MBC of nanoemulsions against gram-negative isolates (CLSI, alamar blue); format: cell-based; details: Pseudomonas aeruginosa (n = 5); for MIC50: nanoemulsions in the presence of 5 mM EDTA
[8] = test system: Stenotrophomonas maltophilia; experiment: as above; format: cell-based; details: Stenotrophomonas maltophilia (n = 5); nanoemulsions in the presence of 5 mM EDTA
[9] = test system: Pseudomonas aeruginosa; experiment: MIC/MBC against CF isolates (CLSI, alamar blue); details: for MBC / MIC: Pseudomonas aeruginosa
[10] = test system: Burkholderia cenocepacia; experiment: MIC/MBC against CF isolates (CLSI, alamar blue); details: Burkholderia cenocepacia
[11] = test system: Escherichia coli; experiment: MIC/MBC of nanoemulsions against gram-negative isolates (CLSI, alamar blue); format: cell-based; details: Escherichia coli (n = 5)
[12] = test system: Haemophilus influenzae; experiment: Susceptibility (MIC/MBC) of H. influenzae clinical isolates; format: cell-based
[13] = nanoemulsions in the presence of 5 mM EDTA

C[C@@H](O)[C@H]1C(=O)N2C(C(=O)O)=C(SCCN=CN)C[C@H]12 [Imipenem]
% resistant [1]: 0.0%
% susceptible [1]: 100.0%
MIC50 [1]: 1 µg/mL
MIC Range [1]: <=0.12-2 ^
% resistant [2]: 0.0%
% susceptible [2]: 100.0%
MIC50 [2]: 0.25 µg/mL
MIC Range [2]: <=0.12-0.25 ^
% resistant [3]: 20.0%
% susceptible [3]: 80.0%
MIC50 [3]: ≤ 0.12 µg/mL
MIC50 [4]: 8 µg/mL
MIC Range [4]: 4-8
MBC [5]: > 32 µg/mL
MIC [6]: 0.125 µg/mL (≈ 0.418 µM)
MBC ([6]; Acinetobacter isolate NB31): 1 µg/mL (≈ 3.34 µM)
MIC ([6]; Acinetobacter isolate NB31): 1 µg/mL (≈ 3.34 µM)
MBC ([6]; Acinetobacter isolate NB35): 8 µg/mL (≈ 26.7 µM)
MIC ([6]; Acinetobacter isolate NB35): 8 µg/mL (≈ 26.7 µM)
MBC ([6]; Acinetobacter isolate NB36): 0.125 µg/mL (≈ 0.418 µM)
MBC ([6]; Acinetobacter isolate NB37): 8 µg/mL (≈ 26.7 µM)
MBC ([6]; Acinetobacter isolate NB39): 2 µg/mL (≈ 6.68 µM)
MIC ([6]; Acinetobacter isolate NB39): 2 µg/mL (≈ 6.68 µM)
MIC ([6]; Acinetobacter isolate NB40): 2 µg/mL (≈ 6.68 µM)
MBC ([6]; read-out: MBC 50, 10 Acinetobacter isolates): 8 µg/mL (≈ 26.7 µM)
% resistant [7]: 20.0%
% susceptible [7]: 80.0%
MIC50 [7]: 1 µg/mL
MIC50 [8]: > 8 µg/mL
MBC 90 ([9]; 20 CF Pseudomonas isolates): >32 µg/mL
MBC ([9]; CF Pseudomonas isolate NB1): 8 µg/mL (≈ 26.7 µM)
MIC ([9]; CF Pseudomonas isolate NB1): 1 µg/mL (≈ 3.34 µM)
MBC ([9]; CF Pseudomonas isolate NB2): 2 µg/mL (≈ 6.68 µM)
MIC ([9]; CF Pseudomonas isolate NB2): 2 µg/mL (≈ 6.68 µM)
MIC ([9]; CF Pseudomonas isolate NB3): 2 µg/mL (≈ 6.68 µM)
MBC ([9]; CF Pseudomonas isolate NB4): 8 µg/mL (≈ 26.7 µM)
MIC ([9]; CF Pseudomonas isolate NB5): 2 µg/mL (≈ 6.68 µM)
MBC ([9]; CF Pseudomonas isolate NB6): 2 µg/mL (≈ 6.68 µM)
MIC ([9]; CF Pseudomonas isolate NB6): 1 µg/mL (≈ 3.34 µM)
MBC ([9]; CF Pseudomonas isolate NB10): 8 µg/mL (≈ 26.7 µM)
MBC ([9]; CF Pseudomonas isolate NB11): 8 µg/mL (≈ 26.7 µM)
MIC ([9]; CF Pseudomonas isolate NB11): 2 µg/mL (≈ 6.68 µM)
MIC ([9]; CF Pseudomonas isolate NB13): 8 µg/mL (≈ 26.7 µM)
MIC ([9]; CF Pseudomonas isolate NB15): 8 µg/mL (≈ 26.7 µM)
MIC ([9]; CF Pseudomonas isolate NB16): 8 µg/mL (≈ 26.7 µM)
MIC ([9]; CF Pseudomonas isolate NB20): 2 µg/mL (≈ 6.68 µM)
MBC ([10]; CF Burkholderia isolate NB28b): 0.5 µg/mL (≈ 1.67 µM)
MIC ([10]; CF Burkholderia isolate NB28b): 0.5 µg/mL (≈ 1.67 µM)
MIC ([10]; CF Burkholderia isolate NB29): 8 µg/mL (≈ 26.7 µM)
% resistant [11]: 0.0%
% susceptible [11]: 100.0%
MIC50 [11, 13]: 0.25 µg/mL
MIC Range [11, 13]: <=0.12-0.5 ^

CN(C)[C@@H]1C(O)=C(C(N)=O)C(=O)[C@@]2(O)C(O)=C3C(=O)c4c(O)cccc4[C@@](C)(O)[C@H]3C[C@@H]12 [Tetracycline]
MIC Range ([12]; H. influenzae isolates of Table 6, nanoemulsion values as μg CPC/ml or μg BA/ml): 0.5 to 16 µg/mL
MIC ([12]; Haemophilus influenzae, strain 30, nanoemulsion values as μg CPC/ml or μg BA/ml): 0.5 µg/mL (≈ 1.13 µM)
MIC ([12]; Haemophilus influenzae, strain 32, nanoemulsion values as μg CPC/ml or μg BA/ml): 2 µg/mL (≈ 4.5 µM)
MIC ([12]; Haemophilus influenzae, strain 33, nanoemulsion values as μg CPC/ml or μg BA/ml): 1 µg/mL (≈ 2.25 µM)
MIC ([12]; Haemophilus influenzae, strain 34, nanoemulsion values as μg CPC/ml or μg BA/ml): 1 µg/mL (≈ 2.25 µM)
MIC ([12]; Haemophilus influenzae, strain 35, nanoemulsion values as μg CPC/ml or μg BA/ml): 0.5 µg/mL (≈ 1.13 µM)
MIC ([12]; Haemophilus influenzae, strain 36, nanoemulsion values as μg CPC/ml or μg BA/ml): 1 µg/mL (≈ 2.25 µM)
MIC ([12]; Haemophilus influenzae, strain 37, nanoemulsion values as μg CPC/ml or μg BA/ml): 1 µg/mL (≈ 2.25 µM)
MIC ([12]; Haemophilus influenzae, strain 38, nanoemulsion values as μg CPC/ml or μg BA/ml): 0.5 µg/mL (≈ 1.13 µM)
MIC ([12]; Haemophilus influenzae, strain 41, nanoemulsion values as μg CPC/ml or μg BA/ml): 1 µg/mL (≈ 2.25 µM)
MIC ([12]; Haemophilus influenzae, strain 42, nanoemulsion values as μg CPC/ml or μg BA/ml): 1 µg/mL (≈ 2.25 µM)
MIC ([12]; Haemophilus influenzae, strain 49247, nanoemulsion values as μg CPC/ml (P4075EC, W205EC) or μg BA/ml (W205GBA2)): 16 µg/mL (≈ 36 µM)
MIC90 ([12]; Haemophilus influenzae, H. influenzae isolates of Table 6, nanoemulsion values as μg CPC/ml or μg BA/ml): 2 µg/mL (≈ 4.5 µM)
% resistant [1]: 100.0%
% susceptible [1]: 0.0%
MIC50 [1]: > 8 µg/mL
MIC Range ([1]; in µg/mL): >8
% resistant [2]: 0.0%
% susceptible [2]: 100.0%
MIC50 [2]: ≤ 2 µg/mL
MIC Range [2]: <=2-4 ^
% resistant [3]: 20.0%
% susceptible [3]: 80.0%
MIC50 [3]: ≤ 2 µg/mL
MIC50 [4]: > 8 µg/mL
MIC Range [4]: >8
% resistant [7]: 40.0%
% susceptible [7]: 0.0%
MIC50 [7]: 8 µg/mL
MIC50 [8]: > 8 µg/mL
% resistant [11]: 80.0%
% susceptible [11]: 20.0%
MIC50 [11, 13]: > 8 µg/mL
